US20050142068A1, “Retinal toxicity screening methods” (Pfizer Inc, priority 2003, published 2005)

Columns and labels:
RPE-J cells = experiment: Assay to identify retinal toxic agents: integrin marker fluorescence in RPE-J cells, confocal microscopy; type: cell-based, rat; conditions: 50 nM integrin marker, one hour
Excerpt: For each figure, the photomicrograph on the left is made using two excitation wavelengths—488 nm (argon laser) for the integrin marker peptide and 633 nm (HeNe laser) for TOTO®-3 iodide. The integrin peptide marker fluoresces at 520 nm and TOTO®-3 iodide fluoresces at 660 nm. The photomicrograph on the right is of the identical cells as those in the left micrograph, but under 488 nm excitation alone.
RPE-J cells were plate cultured in high glucose DMEM medium (cat. no. 10313021, Invitrogen, Carlsbad, Calif.) containing 4% fetal calf serum (cat. no. 12319018, Invitrogen) at 33° C. under 5-10% CO2 atmosphere. When confluence of about 80% was reached (after about seven days), the medium was removed from the culture dish and the cells on the bottoms were washed with 0.25% trypsin-EDTA (cat. no. 25200056, Invitrogen) for three and one-half to five minutes. Following trypsinization the cells were centrifuged at 500-600 RPM for five minutes and resuspended in high glucose DMEM medium containing 4% fetal calf serum. The cells were plated in a four-chamber slide (1.7 cm^2 per chamber) at 50,000 cells per chamber. When confluence of about 80% was reached, the cells were gently wash the cells in warm phosphate buffered saline. […] Fluorescence was detected at 520 nm for the integrin marker peptide and at 660 nm for TOTO®-3 iodide.

retina = conditions: literature reports; cited from earlier work

Compound | visibility of integrin peptide marker fluorescence (RPE-J cells; 1 μM tamoxifen, 488 nm excitation (FIG. 3)) | visibility of integrin peptide marker fluorescence (RPE-J cells; 25 μM tamoxifen, 488 nm excitation (FIG. 4)) | damage to the retina reported as a result of exposure (retina)
CC/C(=C(\c1ccccc1)c1ccc(OCCN(C)C)cc1)c1ccccc1 [tamoxifen] | clearly visible | highly visible | 
CN(C)CCCN1c2ccccc2Sc2ccc(Cl)cc21 [chlorpromazine] |  |  | retinopathy
CCN(CC)CCCC(C)Nc1ccnc2cc(Cl)ccc12 (stereo not shown) [cloroquine] |  |  | retinopathy
